Source: patent publication US5637600A, “Phenylpyrrole derivatives and their use as dopamine D3 antagonists” (SmithKline Beecham p.l.c., priority 1994, dated 1997)
Counter-ions that a name gives are not always drawn.

Biological target: T1, human D3 dopamine receptors (Homo sapiens, UniProt P35462)
T1 construct: expressed in transfected cells; host or cells: CHO cells
Test: [125I] iodosulpride displacement binding to cloned human D3 dopamine receptors expressed in CHO cells
Settings: displacement of 0.1 nM [125I] iodosulpride, CHO cell membranes, 30 min at 37° C.; read-out: IC50 values at the human D3 receptor
Method: The inhibition constants (Ki) of test compounds for displacement of [^125 I] iodosulpride binding to human D3 dopamine receptors expressed in CHO cells were determined as follows. […] Cultures were grown as monolayers or in suspension in standard cell culture media. Cells were recovered by scraping (from monolayers) or by centrifugation (from suspension cultures), and were washed two or three times by suspension in phosphate buffered saline followed by collection by centrifugation. Cell pellets were stored frozen at -40° C. Crude cell membranes were prepared by homogenisation followed by high-speed centrifugation, and characterisation of cloned receptors achieved by radioligand binding.
Cell pellets were gently thawed at room temperature, and resuspended in about 20 volumes of ice-cold 50 mM Tris salts (pH 7.4@37° C.), 20 mM EDTA, 0.2M sucrose. The suspension was homogenised using an Ultra-Turrax at full speed for 15 sec. The homogenate was centrifuged at 18,000 r.p.m for 20 min at 4° C. in a SorvalI RC5C centrifuge. The membrane pellet was resuspended in ice-cold 50 mM Tris salts (pH 7.4@37° C.), using an Ultra-Turrax, and recentrifuged at 18,000 r.p.m for 15 min at 4° C. in a Sorvall RC5C. The membranes were washed two more times with ice-cold 50 mM Tris salts (pH 7.4@37° C.). The final pellet was resuspended in 50 mM Tris salts (pH 7.4@37° C.), and the protein content determined using bovine serum albumin as a standard (Bradford, M. M. (1976) Anal. Biochem. 72, 248-254).
Crude cell membranes were incubated with 0.1 nM [^125 I] iodosulpride (~2000 Ci/mmol; Amersham, U. K.), and the test compound in a buffer containing 50 mM Tris salts (pH 7.4@37° C.), 120 mM NaCl, 5 mM KCl, 2 mM CaCl2, 1 mM MgCl2, 0.1% (w/v) bovine serum albumin, in a total volume of 1 ml for 30 min at 37° C. […] The radioactivity on the filters was measured using a Cobra gamma counter (Canberra Packard). […]
Competition curves were analysed simultaneously whenever possible using non-linear least-squares fitting procedures, capable of fitting one, two or three site models.

T1 sequence (P35462 whole entry): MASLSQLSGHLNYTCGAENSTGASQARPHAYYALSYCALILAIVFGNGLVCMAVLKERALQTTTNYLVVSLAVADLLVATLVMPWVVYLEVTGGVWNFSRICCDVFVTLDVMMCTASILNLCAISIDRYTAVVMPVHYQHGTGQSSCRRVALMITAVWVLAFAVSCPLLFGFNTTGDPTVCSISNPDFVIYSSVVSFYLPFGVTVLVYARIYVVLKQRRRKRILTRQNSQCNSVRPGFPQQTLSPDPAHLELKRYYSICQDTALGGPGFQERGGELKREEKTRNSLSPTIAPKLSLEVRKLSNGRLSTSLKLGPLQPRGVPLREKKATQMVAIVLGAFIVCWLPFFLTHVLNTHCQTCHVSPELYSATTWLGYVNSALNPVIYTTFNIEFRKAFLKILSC

IC50 | Compound
5 to 20 nM | CCN1CCCC1c1ccc(-c2cc(S(=O)(=O)Oc3ccccc3)ccc2OC)[nH]1 (racemic) [Example 2, 2-(2-(R,S)-(1-Ethylpyrrolidinyl))-5-(2-methoxy-5-phenoxysulphonylphenyl)-1H-pyrrole hydrochloride.]
5 to 20 nM | COc1ccc(S(=O)(=O)Oc2ccccc2)cc1-c1ccc(CN2CCCCCC2c2ccccc2)[nH]1 (stereo not drawn) [Example 1, 2-(2-Methoxy-5-Phenoxysulfonylphenyl)-5-(1-[2-phenylazacycloheptyl]methyl)-1H-pyrrole, hydrochloride]
5 to 20 nM | CCN(Cc1ccccc1)Cc1ccc(-c2cc(S(=O)(=O)Oc3ccccc3)ccc2OC)[nH]1 [Example 3, 2-(N-Benzyl-N-ethyl)aminomethyl-5-(2-methoxy-5-phenoxysulphonylphenyl)-1H-pyrrole hydrochloride]
